Test results as given in patent US20220133837A1, “PEPTIDE INHIBITORS OF NF KAPPA B AND USE THEREOF IN TREATMENT OF COVID-19 AND INFLAMMATORY DISEASES” (priority 2020, published 2022).
Like-named read-outs stand apart in the source and are kept apart here. Non-standard residues stand in square brackets, D forms with d. Residues, ends and D or L forms follow the SMILES beside them. No end group written: not given here.

Tests used:
NFKB2 = type: cell-based, human; settings: control cells set at 1.000, cells harvested after 24 hours
IL1B = type: cell-based, human; settings: control cells set at 1.000, cells harvested after 24 hours
TNFRSF9 = type: cell-based, human; settings: control cells set at 1.000, cells harvested after 24 hours
ACE2 receptor = type: cell-based, human; settings: control cells set at 1.000, cells harvested after 24 hours
CCL2 = type: cell-based, human; settings: control cells set at 1.000, cells harvested after 24 hours
IL6 = type: cell-based, human; settings: control cells set at 1.000, cells harvested after 24 hours
[1] = test system: carrageenan (CAR) induced inflammation model; test: Carrageenan (CAR) induced paw edema model; type: in vivo; settings: rat, peptide 70 ng, 1 nanomole injected 30 minutes after CAR; for Edema, change in paw volume after CAR injection: sub-plantar CAR 100 μL of 1% suspension, plethysmometer hourly for 24 h, versus control animals
From the text: The anti-inflammatory activity of YMAP[D]EV (SEQ ID NO:116) was also examined in a classical carrageenan (CAR) induced inflammation model (Ivan G. Otterness, Peter F. Moore, Carrageenan foot edema test, Methods in Enzymology, Academic Press, Volume 162, 1988, Pages 320-327, (see URL www.sciencedirect.com/science/article/pii/0076687988620866); Fehrenbacher J C et al., Models of inflammation: Carrageenan- or complete Freund's Adjuvant (CFA)-induced edema and hypersensitivity in the rat. Curr Protoc Pharmacol. 2012 March; Chapter 5m Unit5.4, doi:10.1002/0471141755.ph0504s56. PMID: 22382999; PMCID: PMC4683998.). Paw edema was induced by a sub-plantar injection of CAR (100 μL of a 1% suspension in 0.85% saline). In the treatment group, YMAP[D]EV (SEQ ID NO:116) (70 ng, 1 nanomole) was injected 30 minutes after CAR injection. Changes in paw volume were measured using a plethysmometer immediately before CAR injection, and then at hourly intervals for 24 h. Edema was expressed as change in paw volume (mL) after CAR injection relative to the pre-injection value for each rat.

TMPRSS2 = type: cell-based, human; settings: control cells set at 1.000, cells harvested after 24 hours
ILIA = type: cell-based, human; settings: control cells set at 1.000, cells harvested after 24 hours
TNFRSF1A = type: cell-based, human; settings: control cells set at 1.000, cells harvested after 24 hours
TNF = type: cell-based, human; settings: control cells set at 1.000, cells harvested after 24 hours
CXCL8 = type: cell-based, human; settings: control cells set at 1.000, cells harvested after 24 hours
NFKB1 = type: cell-based, human; settings: control cells set at 1.000, cells harvested after 24 hours
CCL5 = type: cell-based, human; settings: control cells set at 1.000, cells harvested after 24 hours

## CSCC[C@H](NC(=O)[C@@H](N)Cc1ccc(O)cc1)C(=O)N[C@@H](C)C(=O)N1CCC[C@H]1C(=O)N[C@H](CCC(=O)O)C(=O)N[C@H](C(=O)O)C(C)C [PEP2, L-tyrosyl-L-methionyl-L-alanyl-L-prolyl-D-glutamyl-L-valine] (H-YMAP[dE]V-OH)
NFKB2; DriverMap gene analysis
  NFKB2 RNA expression, ratio of treated cells to control cells: 0.138
IL1B; DriverMap gene analysis
  IL1B RNA expression, ratio of treated cells to control cells: 0.010
TNFRSF9; DriverMap gene analysis
  TNFRSF9 RNA expression, ratio of treated cells to control cells: 0.007
ACE2 receptor; DriverMap gene analysis
  ACE2 receptor RNA expression, ratio of treated cells to control cells: 1.000
CCL2; DriverMap gene analysis
  CCL2 RNA expression, ratio of treated cells to control cells: 0.059
IL6; DriverMap gene analysis
  IL6 RNA expression, ratio of treated cells to control cells: 0.057
[1]; 24-hour period of observation
  Duration of the effect on edema: ≥ 24 h
[1]
  Edema, change in paw volume after CAR injection: marked decrease in edema within two hours
TMPRSS2; DriverMap gene analysis
  TMPRSS2 RNA expression, ratio of treated cells to control cells: 1.000
ILIA; DriverMap gene analysis
  ILIA RNA expression, ratio of treated cells to control cells: 0.260
TNFRSF1A; DriverMap gene analysis
  TNFRSF1A RNA expression, ratio of treated cells to control cells: 0.752
TNF; DriverMap gene analysis
  TNF RNA expression, ratio of treated cells to control cells: 0.015
CXCL8; DriverMap gene analysis
  CXCL8 RNA expression, ratio of treated cells to control cells: 0.0052
NFKB1; DriverMap gene analysis
  NFKB1 RNA expression, ratio of treated cells to control cells: 0.243
CCL5; DriverMap gene analysis
  CCL5 RNA expression, ratio of treated cells to control cells: 0.0003

## ANVAENA [PEP1, L-alanyl-L-asparaginyl-L-valyl-L-alanyl-L-glutamyl-L-asparaginyl-L-alanine]
NFKB2; Affymetrix gene arrays
  NFKB2 RNA expression, ratio of treated cells to control cells: 0.851
IL1B; Affymetrix gene arrays
  IL1B RNA expression, ratio of treated cells to control cells: 0.691
TNFRSF9; Affymetrix gene arrays
  TNFRSF9 RNA expression, ratio of treated cells to control cells: 1.136
ACE2 receptor; Affymetrix gene arrays
  ACE2 receptor RNA expression, ratio of treated cells to control cells: 0.632
CCL2; Affymetrix gene arrays
  CCL2 RNA expression, ratio of treated cells to control cells: 1.298
IL6; Affymetrix gene arrays
  IL6 RNA expression, ratio of treated cells to control cells: 1.135
[1]
  Edema, change in paw volume after CAR injection: nearly identical data
TMPRSS2; Affymetrix gene arrays
  TMPRSS2 RNA expression, ratio of treated cells to control cells: 0.525
ILIA; Affymetrix gene arrays
  ILIA RNA expression, ratio of treated cells to control cells: 0.036
TNFRSF1A; Affymetrix gene arrays
  TNFRSF1A RNA expression, ratio of treated cells to control cells: 1.415
TNF; Affymetrix gene arrays
  TNF RNA expression, ratio of treated cells to control cells: 0.349
CXCL8; Affymetrix gene arrays
  CXCL8 RNA expression, ratio of treated cells to control cells: 1.135
NFKB1; Affymetrix gene arrays
  NFKB1 RNA expression, ratio of treated cells to control cells: 0.927
CCL5; Affymetrix gene arrays
  CCL5 RNA expression, ratio of treated cells to control cells: 0.456
